Reference: patent US10265407B2, “Modular nanodevices for smart adaptable vaccines” (Yale University, priority 2007, dated 2019)

Tested on: dendritic cells
Conditions: FCCP incorporated in PLGA-G4 or PLGA-G4-cyclodextrin nanoparticles; FIG. 8
Description: The prepared nanoparticles were tested for their ability to disrupt endosomes. Particles co-encapsulating the OVA peptide or GFP associated with the dendrimer were incubated at a concentration of 50 μg/ml with 1E5 BMDCs for 24 hours. Liposomal disruption was assessed both qualitatively via fluorescence microscopy of GFP in the cytosol or quantitatively by amount of OVA antigen presented via MHC Class I. Antigen presentation on Class I MHC takes place via cytosolic transport and OVA peptide/MHC Class I was detected specifically using the antibody 24D16-PE.

In the case of N#CC(C#N)=NNc1ccc(OC(F)(F)F)cc1 [FCCP, carbonyl cyanide 4-(trifluoromethoxy) phenylhydrazone], the “ability to disrupt endosomes” value was “significantly enhances”.
